Data as given in patent EP2246329A1, “4(1H)-pyridinone derivatives and their use as antimalaria agents” (Glaxo Group Limited, priority 2009, dated 2010).

System: Plasmodium falciparum
Experiment: In vitro anti-malarial activity against Plasmodium falciparum, IC50 assay / [3H]-Hypoxanthine incorporation assay
Format: cell-based
Details: Erythrocyte; Plasmodium falciparum strains in parasitized red blood cells, [3H]-hypoxanthine incorporation, 48 hours at 37°C
Method: The compounds of this invention may be tested in one of several biological assays to determine the concentration of compound which is required to have a given pharmacological effect. In vitro anti-malarial activity against Plasmodium falciparum. IC50 assay / [^3H]-Hypoxanthine assay
The culture medium comprised RPMI 1640 with 25mM HEPES, sodium bicarbonate and glutamine (GIBCO™ cat. ref.: 52400), supplemented with 10% of pooled human sera AB (Irvine Scientific, cat. ref.: 5009) and HT supplement (0.15 mM hypoxanthine and 24 µM thymidine), (GIBCO™ cat. ref.: 41065). Human sera were decomplemented 30 min. at 56°C, aliquoted and stored frozen at -20°C until use in this culture medium.
This culture medium ("complete medium") was usually prepared fresh just before use and pre-warmed to 37°C.
Red blood cells O+ stock suspensions were prepared from whole blood bags coming from incomplete blood donation, provided by the Spanish Red Cross (<25 days after sampling). This "whole blood" was aliquoted and stored at 4°C.
To prepare red blood cells for the assay, the whole blood was centrifuged and washed 3 times with RPMI without serum. The upper phase, containing white blood cells was removed. The washed red blood cells were kept as a 50 % suspension in complete medium. The prepared cells were stored at 4°C and were employed in the assay at any time up to 4 days after preparation.
Test compounds were dissolved at 2 mg/ml in 100% DMSO on the day of the assay. If necessary, complete dissolution was achieved by gentle heating (the mixture was heated at a temperature <37°C) and sonication (sonication bath).
For IC50 determinations, 10 serial 2-fold dilutions were prepared in complete medium in the presence of a constant amount of DMSO. Any obvious signs of insolubility of the stock solutions in 100% DMSO or precipitation when these solutions were diluted in assay media, were recorded.
Plasmodium falciparum strains were maintained in complete medium at an hematocrit of 5% in continuous culture using a method adapted from that published by Trager and Jensen(1) and Traeger(2).
The parasitemia was calculated by counting the percentage of parasitized erythrocytes by optical microscopy. Thin films of blood were made every day from each culture flask, fixed with methanol and stained for 10 min. in Giemsa (Merck, cat. ref.: 1.09204) at 10 % in buffered water pH 7.2. The glass slides were observed and counted with an optical microscope (Nikon, Eclipse E200) equipped with a 100 X immersion oil objective.
The culture was maintained at an hematocrit of 5%, with a daily change of medium and was diluted when parasitemia had reached about 5%.
[^3H] Hypoxanthine incorporation assay was conducted using a method adapted from Desjardins et al. (3). The assays were performed in 96 wells flat bottom microplates. • 1. Serial dilutions of the test compounds (50µl of a 5X solution / well) were deposited in duplicate. Compounds of the invention were tested in this assay. Chloroquine and Atovaquone were used as control compounds for each assay. • 2. […] [^3H]-Hypoxanthine (Amersham Biosciences, cat. ref.: TRK74) was added extemporaneously to the inoculum suspension at a concentration of 1 µCi/ml (equating to […]). 200 µl of the resulting suspension was distributed into each well (other than the control well H12 described below) leading to a final volume of 250 µl per well, at 2% of hematocrit and 0.5 % of parasitemia / well. • 4. […]

SMILES | IC50
Cc1[nH]c(C)c(-c2ccc(C#CCN(C)Cc3ccc(C(F)(F)F)cc3C(F)(F)F)cc2)c(=O)c1Cl [Example 4, 3-(4-{3-[{[2,4-Bis(trifluoromethyl)phenyl]methyl}(methyl)amino]-1-propyn-1-yl}phenyl)-5-chloro-2,6-dimethyl-4(1H)-pyridinone] | < 0.125 µg/mL
CC(=O)Oc1c(Cl)c(C)nc(C)c1-c1ccc(-c2ccc(CN3CCC(c4ccc(OC(F)(F)F)cc4)CC3)cc2)cc1.Cl [Example 56, 3-Chloro-2,6-dimethyl-5-{4'-[(4-{4-[(trifluoromethyl)oxy]phenyl}-1-piperidinyl)methyl]-4-biphenylyl}-4-pyridinyl acetate hydrochloride] | < 0.125 µg/mL
Cc1[nH]c(C)c(-c2ccc(C#CCN3CCc4cccc(C(F)(F)F)c4C3)cc2)c(=O)c1Cl.Cl [Example 15, 3-Chloro-2,6-dimethyl-5-(4-{3-[8-(trifluoromethyl)-3,4-dihydro-2(1H)-isoquinolinyl]-1-propyn-1-yl}phenyl)-4(1H)-pyridinone hydrochloride] | < 0.125 µg/mL

Other lines, results leading:

IC50 | SMILES
< 0.125 µg/mL | Cc1[nH]c(C)c(-c2ccc3sc(CN(C)Cc4ccc(OC(F)(F)F)cc4)cc3c2)c(=O)c1Cl.Cl [Example 31, 3-Chloro-2,6-dimethyl-5-(2-{[methyl({4-[(trifluoromethyl)oxy]phenyl}methyl)amino]methyl}-1-benzothien-5-yl)-4(1H)-pyridinone hydrochloride]
< 0.125 µg/mL | Cc1[nH]c(C)c(-c2ccc(-c3cccc(CN(C)Cc4ccc(OC(F)(F)F)cc4)c3)cc2)c(=O)c1Cl.Cl [Example 34, 3-Chloro-2,6-dimethyl-5-(3'-{[methyl({4-[(trifluoromethyl)oxy]phenyl}methyl)amino]methyl}-4-biphenylyl)-4(1H)-pyridinone hydrochloride]
